According to patent publication US5441883A, “A3 adenosine receptor, DNA, and uses” (priority 1993, dated 1995):
Read-outs that look alike come from different tables or passages of the source.

Tests used:
A3 adenosine receptor [1] = target: T1, A3 adenosine receptor (Rattus norvegicus, UniProt P28647); experiment: biochemical; type: binding; conditions: for IC50: 0.5 nM [125I]APNEA; for pharmacological profile of inhibition of [125I]APNEA binding: rank order; for inhibition at 1000 µM: read-out: inhibition of [125I]APNEA binding; for inhibition at 100 µM: read-out: inhibition of specific [125I]APNEA binding
T1 sequence (P28647 1-320): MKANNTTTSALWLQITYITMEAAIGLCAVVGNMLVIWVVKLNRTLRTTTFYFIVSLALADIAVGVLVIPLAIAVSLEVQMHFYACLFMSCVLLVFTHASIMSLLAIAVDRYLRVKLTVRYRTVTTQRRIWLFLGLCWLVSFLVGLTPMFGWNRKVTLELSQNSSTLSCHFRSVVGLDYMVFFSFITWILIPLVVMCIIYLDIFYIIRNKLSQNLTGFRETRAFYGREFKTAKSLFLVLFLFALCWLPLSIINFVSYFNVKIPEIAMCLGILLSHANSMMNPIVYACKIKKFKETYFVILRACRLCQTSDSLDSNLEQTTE
Experimental: FIGS. 4A and 4B illustrates competitive binding assays using stably transfected CHO cell membrane preparations.
(§1) Cell membranes were prepared as follows. COS-7 cells (transient expressors) were harvested 48 hrs after transfection, whereas CHO cells (stable expressors) were grown to confluence in 150 mm plates. Cells were washed twice with ice-cold HOB buffer [15 mM Tris-HCl (pH 7.4), 5 mM MgCl2, 1 mM EDTA] and scraped off plates with a rubber policeman. Cells were then collected by centrifugation at 1,200 rpm (xx g), resuspended in HOB buffer, transferred to a Dounce homogenizer on ice, and homogenized for 20 sec with a CorTarge homogenizer (Eberbach Inc., Ann Arbor, Mich.) at the #3 speed setting. The homogenate was then centrifuged at 2,000 rpm (xx g) for 10 min at 4° C. The supernatant was saved and the pellet resuspended in HOB buffer and subjected to a second round of homogenation. The second homogenate was centrifuged at 2000 rpm (xx g) for 10 min and the pellet was discarded. Supernatants were pooled and centrifuged at 34,000 rpm (xx g) for 45 min. These crude membrane pellets were resuspended in TEM buffer [50 mM Tris-HCl (pH 7.4), 5 mM MgCl2, 1 mM EDTA]. Adenosine deaminase (Sigma, St Louis, Mo.) was added to the membrane suspensions to a concentration of 2 Units/ml and incubated at 37° C. for 30 min. The membrane suspension was subsequently recentrifuged at 34,000 rpm (xx g) for 45 min. The resulting pellet was resuspended in TEM buffer at a protein concentration of about 1 mg/ml and stored in small aliquots at -70° C. The protein concentration was measured according to the method of Lowry et al. (1954, J. Biol. Chem. 207: 1-XXX) using bovine serum albumin as a standard.
Radioligand binding assays were carried out in duplicate in 500 μl of a solution containing (at final concentrations) 50 mM Tris-HCl (pH 7.4), 5 mM MgCl2, 1 mM EDTA, 0.025 % ascorbic acid, radioligands, and appropriate drugs. […] ([aH]XAC), [^3 H]-labeled 2-[4-(2-[(4-aminophenyl)methylcarbobylamino]ethylaminocarbonyl)ethyl)phenyl]ethylamino-5'-N-ethylcarboxamidoadenosine ([^3 H]PAPA-APEC), and [^3 H]-labeled [2-(4-(2-carboxyethyl)phenylethyamino)5'-N-ethylcarboxamidoadenosine ([^3 H]CGS21680). Receptor binding was initiated by the addition of membrane preparations in an amount equivalent to 20-100 μg protein, and carried out at 37° C. for 1 hr. Nonspecific binding was determined in the presence of 10 μM R-N^6 -phenyl-2-propyladenosine (R-PIA). After incubation, samples were filtered through glass fiber filters (Schleicher and Schuell #32) and washed three times with 4 ml ice-cold 10 mM TrisoHCl (pH 7.4). Radioactivity retained on the filters were counted using a Beckman LS6800 scintillation counter (Beckman Instruments, Palo Alto, Calif.). […] A LIGAND computer program was used for data analysis and curve fitting (Munson & Rodband, 1980, Anal. Biochem. 107: 220-225).
The A3 receptor was then characterized using competition assays between [^125 I]APNEA A3 receptor binding versus a series of other adenosine receptor ligands. Labeled APNEA was present in these assays at 0.5 nM; unlabled competitors were present at varying concentrations as shown in FIG. 4A.

A3 adenosine receptor [2] = target: T1, A3 adenosine receptor; experiment: cell-based; type: cell-based; conditions: for inhibitory effect of R-PIA and NECA on forskolin-stimulated cAMP production after pertussis toxin pretreatment: 100 ng/ml pertussis toxin, 18 hours; for effect on forskolin-stimulated cAMP: 100 μM ATP or ADP
Experimental: The concentrations of adenosine agonists used are 100 nM and the concentration of forskolin is 1 μM. Values are obtained from triplicate plates and shown as mean ±S.E.
The cell were not or pretreated with 100 ng/ml pertussis toxin for 18 hours. The concentration of forskolin and adenosine agonists used are as in FIG. 5.
It is known that the A 1 adenosine receptor inhibits adenylate cyclase activity and the A2 adenosine receptor stimulates adenylate cyclase respectively (Stiles, ibid.; Williams, ibid.).
Cells were grown to about 80% confluence in 150 mm dishes, washed twice with Ca^++ and Mg^++ -free PBS buffer and detached from plates with PBS buffer containing 0.02% EDTA. Cells were collected by centrifugation at 800 rpm (xx g) for 10 min at 4° C. and resuspended in an appropriate volume of KRH buffer [140 mM NaCl, 5 mM KCl , 2 mM CaCl2, 1.2 mM MgSO4, 1.2 mM KH2 PO4, 6 mM glucose, 25 mM Hepes-NaOH (pH 7.4)]. The cells were washed once with KRH buffer and resuspended in KRH buffer at a concentration of 10^7 cells/ml. Each of 100 μl aliquots of this cell suspension were added to a glass tube containing 100 μl KRH+200 μM Ro 20-1724 and incubated at 37° C. for 10 min. Prewarmed 200 μl KRH containing 200 μm Ro 20-1724 and test drugs were then added to the cells and mixed. After incubation at 37° C. for 20 min, 400 μl 10.5 mM NaAc (pH 6.2) were added and the glass tubes transferred to a boiling water bath. The incubated cell suspension were boiled for 20 min, and the tubes were then cooled to room temperature and centrifuged at 3000 rpm (xx g) for 15 min.
For experiments using pertussis toxin pretreatment, aseptic pertussis toxin (Sigma Chemical Co., St. Louis, Mo.) was dissolved in sterile water and added to the medium to a final concentration of 100 ng/ml. Toxin treatment was maintained for approximately 18 hours. The dishes were rinsed once with media immediately prior to the addition of adenosine receptor ligands and processed as described above.

A3 adenosine receptor [3] = target: T1, A3 adenosine receptor; experiment: Direct radioligand binding / Scatchard analysis, stably transfected CHO cell membranes; conditions: radiolabeled ligands, stably transfected CHO membranes
Description: FIG. 3 illustrates a Scatchard plot of radioligand binding assays for the A3 adenosine receptor performed with the adenosine radioligand [^125 I]APEA and membrane preparations from stably transfected CHO cells.
The entire coding region of the A3 cDNA insert from R226 was excised from pGem226 and subcloned into either the HindIII/XbaI sites of an RC-RSV expression vector (Invitrogene, San Diego, Calif.) or the HindIII/SmaI sites of pBC12BI (Cullen, 1987, Meth. Enzym. 152: 684-704). The resulting plasmids were called Rc-RSV226 and pBC226 respectively. For transient expression in COS-7 cells, pBC226 plasmid DNA was prepared in large-scale through one cycle of CsCl gradient ultracentrifugation and 45 μg pBC226 DNA were transfected into each 150mm dish of COS-7 cells according to the method of Chen and Okayama (1987, Molec. Cell Biol. 7: 2745-2752). For stable expression in CHO cells, 1 μg Rc-RSV226 plasmid DNA isolated from a small-scale preparation was purified using the Prep-A-Gene kit (Bio-Rad) and transfected into CHO cells by the CaPO4 method (Graham and van der Eb, 1973, Virol. 52: 456-463). After transfection, cells were cultured in DMEM (COS-7 cells) or F-12 (CHO cells) media supplemented with 10% fetal calf serum in a 3% CO2 atmosphere at 37° C. For stable transfection, selection was performed with neomycin (G418; SOURCE) at a concentration of 700 μg/ml; selection was started 72 hr after transfection and continued for 3 weeks. Cell colonies were screened for expression of the A3 adenosine receptor from the R226 expression vectors described herein by Northern blot hybridization of total cellular RNA with random-primed PCR226 probe (Maniatis et al., ibid.).
as §1
Radioligand binding assays were carried out in duplicate in 500 μl of a solution containing (at final concentrations) 50 mM Tris-HCl (pH 7.4), 5 mM MgCl2, 1 mM EDTA, 0.025 % ascorbic acid, radioligands, and appropriate drugs. […] ([aH]XAC), [^3 H]-labeled 2-[4-(2-[(4-aminophenyl)methylcarbobylamino]ethylaminocarbonyl)ethyl)phenyl]ethylamino-5'-N-ethylcarboxamidoadenosine ([^3 H]PAPA-APEC), and [^3 H]-labeled [2-(4-(2-carboxyethyl)phenylethyamino)5'-N-ethylcarboxamidoadenosine ([^3 H]CGS21680). Receptor binding was initiated by the addition of membrane preparations in an amount equivalent to 20-100 μg protein, and carried out at 37° C. for 1 hr.

## C[N+](C)(C)CCOC(N)=O [carbacol]
A3 adenosine receptor [1]; 100 μM
  ability to compete with [125I]APNEA for A3 receptor binding: failed to compete with labeled APNEA

## C[C@H](Cc1ccccc1)Nc1ncnc2c1ncn2[C@@H]1O[C@H](CO)[C@@H](O)[C@H]1O [R-PIA]
A3 adenosine receptor [1]; Table I
  IC50: 0.063 ± 0.019 µM
A3 adenosine receptor [1]
  pharmacological profile of inhibition of [125I]APNEA binding: R-PIA=NECA>S-PIA>adenosine>ATP=ADP
A3 adenosine receptor [2]
  inhibitory effect of R-PIA and NECA on forskolin-stimulated cAMP production after pertussis toxin pretreatment: almost completely abolished
A3 adenosine receptor [2]; 1 μM forskolin, 100 nM agonist
  inhibition of forskolin-stimulated cAMP accumulation: 20-50%
A3 adenosine receptor [2]; Table II
  EC50: 0.018 ± 0.0056 µM

## O=c1ccn([C@@H]2O[C@H](COP(=O)(O)OP(=O)(O)OP(=O)(O)O)[C@@H](O)[C@H]2O)c(=O)[nH]1 [UTP]
A3 adenosine receptor [1]; 1 mM
  inhibition at 1000 µM: < 20%

## Nc1ncnc2c1ncn2[C@H]1C[C@H](O)[C@@H](CO)O1 [2-deoxyadenosine]
A3 adenosine receptor [1]; 1 mM
  inhibition at 1000 µM: < 20%

## CCNC(=O)[C@H]1O[C@@H](n2cnc3c(N)nc(NCCc4ccc(CCC(=O)NCCNC(=O)Cc5ccc(N)cc5)cc4)nc32)[C@H](O)[C@@H]1O [PAPA-APEC]
A3 adenosine receptor [3]
  specific, high affinity binding to the A3 receptor: The only adenosine receptor ligand to show specific, high affinity binding to the A3 receptor was the A1 selective agonist [^125 I]APNEA

## CC(C)Cn1c(=O)n(C)c(=O)c2[nH]cnc21 [IBMX]
A3 adenosine receptor [1]; 100 μM
  ability to compete with [125I]APNEA for A3 receptor binding: none of the methylxanthines tested were capable of competing with labeled APNEA

## Nc1ncnc2c1ncn2[C@@H]1O[C@H](COP(=O)(O)OP(=O)(O)O)[C@@H](O)[C@H]1O [ADP]
A3 adenosine receptor [1]; 100 μM
  inhibition at 100 µM: 25%
A3 adenosine receptor [1]
  pharmacological profile of inhibition of [125I]APNEA binding: R-PIA=NECA>S-PIA>adenosine>ATP=ADP
A3 adenosine receptor [2]
  effect on forskolin-stimulated cAMP: had no effect

## Nc1ncnc2c1ncn2[C@@H]1O[C@H](COP(=O)(O)OP(=O)(O)OP(=O)(O)O)[C@@H](O)[C@H]1O [ATP]
A3 adenosine receptor [1]
  pharmacological profile of inhibition of [125I]APNEA binding: R-PIA=NECA>S-PIA>adenosine>ATP=ADP
  inhibition at 100 µM: 50%
A3 adenosine receptor [2]
  effect on forskolin-stimulated cAMP: had no effect

## Nc1ncnc2c1ncn2[C@@H]1O[C@H](COP(=O)(O)OP(=O)(O)CP(=O)(O)O)[C@@H](O)[C@H]1O [AMP-PCP]
A3 adenosine receptor [1]
  inhibition at 1000 µM: < 20%

## Nc1ncnc2c1ncn2[C@@H]1O[C@H](COP(=O)(O)OP(=O)(O)NP(=O)(O)O)[C@@H](O)[C@H]1O [App(NH)p]
A3 adenosine receptor [1]; 1 mM
  inhibition at 1000 µM: < 20%

## CSc1nc(N)c2ncn([C@@H]3O[C@H](COP(=O)(O)O)[C@@H](O)[C@H]3O)c2n1 [2-methyl-S-AMP]
A3 adenosine receptor [1]; 1 mM
  inhibition of [125I]APNEA binding: < 20%

## NCCc1c[nH]c2ccc(O)cc12 [serotonin]
A3 adenosine receptor [1]; 100 μM
  ability to compete with [125I]APNEA for A3 receptor binding: failed to compete with labeled APNEA

## Cc1ccc(N(CC2=NCCN2)c2cccc(O)c2)cc1 [phentoamine]
A3 adenosine receptor [1]; 100 μM
  ability to compete with [125I]APNEA for A3 receptor binding: failed to compete with labeled APNEA

## NCCc1ccc(O)c(O)c1 [dopamine]
A3 adenosine receptor [1]; 100 μM
  ability to compete with [125I]APNEA for A3 receptor binding: failed to compete with labeled APNEA

## CC(C)NCC(O)c1ccc(O)c(O)c1 (stereo not shown) [isoproterenol]
A3 adenosine receptor [1]; 100 μM
  ability to compete with [125I]APNEA for A3 receptor binding: failed to compete with labeled APNEA

## Nc1nc2c(ncn2[C@@H]2O[C@H](COP(=O)(O)OP(=O)(O)NP(=O)(O)O)[C@@H](O)[C@H]2O)c(=O)[nH]1 [Gpp(NH)p]
A3 adenosine receptor [1]; Gpp(NH)p, varying concentrations
  competition for labeled APNEA binding: 60-70%
A3 adenosine receptor [1]; Table I and text
  IC50: 1 µM

## C[C@@H](Cc1ccccc1)Nc1ncnc2c1ncn2[C@@H]1O[C@H](CO)[C@@H](O)[C@H]1O [S-PIA]
A3 adenosine receptor [1]; Table I
  IC50: 1.14 ± 0.49 µM
A3 adenosine receptor [1]
  pharmacological profile of inhibition of [125I]APNEA binding: R-PIA=NECA>S-PIA>adenosine>ATP=ADP

## pertussis toxin
A3 adenosine receptor [2]
  inhibitory effect of R-PIA and NECA on forskolin-stimulated cAMP production after pertussis toxin pretreatment: almost completely abolished
